Experimental findings from patent US9790158B2, “Substituted tropolone derivatives and methods of use” (University of Connecticut, priority 2012, dated 2017) are described below.

One experiment deals with human recombinant HDAC8 (Homo sapiens (Human), UniProt Q9BY41). The experiment in a line: fluorogenic HDAC inhibition assay, HDAC8. It counts as biochemical. The note with it: IC50 converted to Ki with KM (Cheng and Prusoff); read-out: Ki HDAC-8. How it is done:
Key enzyme kinetic parameters for one class I HDAC (HDAC8) and one class Ha HDAC (HDAC4) were determined using commercially available human recombinant HDAC enzymes (BPS Bioscience, San Diego, Calif.) and fluorogenic HDAC assay kits (BPS Bioscience). Kinetic parameters were determined by performing HDAC activity assays at varied concentrations of the HDAC substrate according to the manufacturer's protocol. Assay data were analyzed via non-linear regression (GraphPad Software, Inc., CA). Inhibition assays were used to determine the half maximal inhibitory concentration, IC50, for tropolone analogs in HDAC8 and […]. The potent hydroxamic acid HDAC inhibitor, Trichostatin A (TSA), provided in the assay kit, served as a control for the assays. IC50 values for the tropolone analogs were converted to inhibition constants, Ki, for each of the inhibitors using the KM value in accordance with the techniques previously described by Cheng and Prusoff.

In a further experiment the target is human recombinant HDAC4 (Homo sapiens, UniProt P56524). The experiment can be described thus: fluorogenic HDAC inhibition assay, HDAC4. It counts as biochemical. The note with it: IC50 converted to Ki with KM (Cheng and Prusoff); read-out: Ki HDAC-4.
In another experiment the test system is Jurkat cells. The experiment in a line: cell-based cytotoxicity assay (Cell Titer 96 Aqueous One), Jurkat. The following applies: 72-h exposure, absorbance at 490 nm. How it is done:
(§1) All cell lines were purchased from ATCC (Manassas, Va.). Jurkat cells were cultured in RPMI 1640 (ATCC) supplemented with 10% fetal bovine serum (FBS; Atlanta Biologicals, Lawrenceville, Ga.). HuT-78 cells were cultured in IMDM (ATCC) supplemented with 20% FBS (Atlanta Biologicals). HT-29 and HCT116 were cultured in McCoy's media (Life Technologies, Carlsbad Calif.) supplemented with 10% FBS (Atlanta Biologicals), 1% non-essential amino acids (Mediatech Inc., Manassas, Va.) and 1% penicillin/streptomycin (Mediatech Inc).
(§2) Confluent Jurkat and HuT-78 cells were seeded in triplicate at a density of 5×10^4 cells/well whereas HT-29 and HCT116 cells were seeded in triplicate at a density of 5×10^3 cells/well in 96-well plates. Cells were treated at varying concentrations (1 μM-100 μM) of either a tropolone analog or SAHA. DMSO served as a vehicle control. After a 72-h exposure, cytotoxicity was evaluated using the Cell Titer 96 Aqueous One kit (Promega, Madison, Wis.) according to the instructions of the manufacturer. Formazan content was determined by measuring the absorbance at 490 nm on an Infinite M200 microplate reader (Tecan Group Ltd., Switzerland) and analyzed via non-linear regression analysis (GraphPad Software, Inc.).

The test system of the next experiment is HuT-78 cells. The experiment can be described thus: cell-based cytotoxicity assay (Cell Titer 96 Aqueous One), HuT-78. The note with it: 72-h exposure, absorbance at 490 nm. The procedure: as §1, §2

As a reminder, the Ki is the equilibrium dissociation constant of an inhibitor or competing ligand from its target. The term IC50 denotes the midpoint of a concentration-inhibition curve. A low value points to inhibition by little substance.

human recombinant HDAC4, sequence (P56524 whole entry, looked up): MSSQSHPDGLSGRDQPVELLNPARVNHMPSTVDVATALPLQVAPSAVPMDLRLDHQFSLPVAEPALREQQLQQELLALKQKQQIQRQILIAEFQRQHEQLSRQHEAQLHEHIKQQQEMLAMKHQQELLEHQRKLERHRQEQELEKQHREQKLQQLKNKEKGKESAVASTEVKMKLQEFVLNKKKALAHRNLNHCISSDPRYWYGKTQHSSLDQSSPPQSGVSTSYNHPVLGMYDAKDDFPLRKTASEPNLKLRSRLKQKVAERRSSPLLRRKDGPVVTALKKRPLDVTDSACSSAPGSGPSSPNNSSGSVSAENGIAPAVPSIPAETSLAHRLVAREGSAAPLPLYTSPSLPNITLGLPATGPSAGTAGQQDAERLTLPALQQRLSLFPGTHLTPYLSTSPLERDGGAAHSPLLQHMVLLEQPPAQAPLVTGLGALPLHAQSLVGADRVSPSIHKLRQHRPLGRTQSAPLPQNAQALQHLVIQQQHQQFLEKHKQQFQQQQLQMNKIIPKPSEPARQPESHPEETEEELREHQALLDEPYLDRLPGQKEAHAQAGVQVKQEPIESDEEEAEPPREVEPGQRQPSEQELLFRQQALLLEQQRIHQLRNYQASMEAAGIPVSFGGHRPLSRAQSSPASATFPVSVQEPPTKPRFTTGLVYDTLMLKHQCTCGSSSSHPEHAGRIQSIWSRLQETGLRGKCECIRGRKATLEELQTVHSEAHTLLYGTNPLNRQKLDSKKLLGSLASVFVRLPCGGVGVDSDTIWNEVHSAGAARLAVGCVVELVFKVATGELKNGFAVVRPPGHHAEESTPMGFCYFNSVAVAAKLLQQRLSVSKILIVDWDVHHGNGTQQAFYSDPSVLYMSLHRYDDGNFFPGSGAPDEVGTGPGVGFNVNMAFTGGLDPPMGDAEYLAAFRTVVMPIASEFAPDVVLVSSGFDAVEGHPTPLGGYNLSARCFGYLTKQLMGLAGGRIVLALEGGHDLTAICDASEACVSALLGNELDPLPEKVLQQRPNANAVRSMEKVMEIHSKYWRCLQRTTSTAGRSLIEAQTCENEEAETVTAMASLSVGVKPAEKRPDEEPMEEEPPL
human recombinant HDAC8, sequence (Q9BY41 whole entry): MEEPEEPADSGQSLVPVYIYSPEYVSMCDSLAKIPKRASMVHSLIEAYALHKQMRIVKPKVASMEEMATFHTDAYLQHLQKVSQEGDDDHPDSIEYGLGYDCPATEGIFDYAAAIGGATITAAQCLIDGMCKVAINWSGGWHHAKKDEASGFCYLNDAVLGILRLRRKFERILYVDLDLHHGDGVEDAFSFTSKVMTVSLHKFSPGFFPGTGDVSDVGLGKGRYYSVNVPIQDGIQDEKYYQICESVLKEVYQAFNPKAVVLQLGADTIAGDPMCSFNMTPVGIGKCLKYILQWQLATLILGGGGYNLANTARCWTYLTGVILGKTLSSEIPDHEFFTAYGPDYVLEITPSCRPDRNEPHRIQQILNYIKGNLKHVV

With `O=c1c(O)ccccc1-c1ccccc1` [Example 1], the Ki on human recombinant HDAC8 is 0.17 nM; at human recombinant HDAC4, 0.08 nM. Also, the IC50 in the experiment on Jurkat cells (Homo sapiens, Jurkat) came out at 3330 nM; in the experiment on HuT-78 cells (Homo sapiens, HuT78), 7830 nM.

On to `O=c1c(O)ccccc1-c1ccc2ccccc2c1` [Example 2], for which the Ki was 7.63 nM on human recombinant HDAC8 and 0.54 nM at human recombinant HDAC4.

Turning to `COc1ccc(-c2ccccc(O)c2=O)cc1` [Example 3], the results for the Ki on human recombinant HDAC8 and at human recombinant HDAC4 were 0.14 nM and 2.74 nM, respectively. For the same compound, the IC50 came to 620 nM in the experiment with Jurkat cells (Homo sapiens, Jurkat) and 2870 nM in the experiment with HuT-78 cells (Homo sapiens, HuT78).

Regarding `COc1ccc(OC)c(-c2ccccc(O)c2=O)c1` [Example 4], the values for the Ki on human recombinant HDAC8 and on human recombinant HDAC4 were 0.44 nM and 184 nM, respectively. For the same compound, the IC50 in the experiment on Jurkat cells (Homo sapiens, Jurkat) turned out to be 750 nM; in the experiment with HuT-78 cells (Homo sapiens, HuT78) it was 3050 nM.

As for `COc1ccc(-c2ccccc(O)c2=O)c(OC)c1OC` [Example 5], the results for the Ki on human recombinant HDAC8 and on human recombinant HDAC4 were 0.04 nM and 59 nM, respectively. For the same compound, the IC50 in the experiment on Jurkat cells (Homo sapiens, Jurkat) is 1860 nM; in the experiment with HuT-78 cells (Homo sapiens, HuT78) it was 4740 nM.

With `O=c1cccc(-c2ccccc2)cc1O` [Example 6], the Ki was 19.4 nM at human recombinant HDAC8 and 72.8 nM at human recombinant HDAC4. In addition, the values for the IC50 in the experiment on Jurkat cells and in the experiment on HuT-78 cells were 670 nM and 4140 nM, respectively.

As to `COc1cccc(-c2cccc(O)c(=O)c2)c1` [Example 7], the Ki at human recombinant HDAC8 was 1.36 nM; on human recombinant HDAC4, 1.7 nM. In addition, the results for the concentration for half-maximal inhibition (IC50) in the experiment on Jurkat cells and in the experiment with HuT-78 cells were 4620 nM and 8950 nM, respectively.

On to `COc1ccc(OC)c(-c2cccc(O)c(=O)c2)c1` [Example 8], for which the values for the Ki on human recombinant HDAC8 and on human recombinant HDAC4 were 1.42 nM and 541 nM, respectively. The values for the IC50 in the experiment with Jurkat cells and in the experiment on HuT-78 cells were 5880 nM and 17100 nM, respectively.

As for `CC(C)c1cccc(O)c(=O)c1` [Example 9], the Ki on human recombinant HDAC8 was 105 nM; on human recombinant HDAC4 it was 3.32 nM. Further, the IC50 in the experiment on Jurkat cells is 1100 nM; in the experiment on HuT-78 cells, 4990 nM.

For the compound `CC(C)(C)c1cccc(O)c(=O)c1` [Example 10], the Ki on human recombinant HDAC8 was 2.69 nM; on human recombinant HDAC4 it was 489 nM. Moreover, the results for the IC50 in the experiment on Jurkat cells and in the experiment with HuT-78 cells were 4450 nM and 13100 nM, respectively.

On to `CCC(C)c1cccc(O)c(=O)c1` (stereo not shown) [Example 11], for which the Ki at human recombinant HDAC8 worked out at 10.1 nM; at human recombinant HDAC4, 94.5 nM. Moreover, the IC50 in the experiment on Jurkat cells came out at 590 nM; in the experiment on HuT-78 cells, 3250 nM.

Take `O=c1cc(C2CCCC2)cccc1O` [Example 12]: the Ki on human recombinant HDAC8 is 23.3 nM; on human recombinant HDAC4 it was 6.64 nM. Besides, the IC50 with Jurkat cells was 6300 nM; in the experiment on HuT-78 cells, 11400 nM.
